In US10245275B2 (ViiV HEALTHCARE UK (NO.4) LIMITED, priority 2014, dated 2019):
Like-named read-outs stand apart in the source and are kept apart here.

What was measured:
[1] = system: WT (wild-type HIV virus; recombinant NL4-3 virus); assay: microbe, parasite or virus in culture; type: cell-based, HIV-1
Protocol: (§1) MT-2 cells and 293T cells were obtained from the NIH AIDS Research and Reference Reagent Program. MT-2 cells were propagated in RPMI 1640 media supplemented with 10% heat-inactivated fetal bovine serum, […]. The 293T cells were propagated in DMEM media supplemented with 10% heat-inactivated fetal bovine serum (FBS), 100 units/mL penicillin G and 100 μg/mL streptomycin. […] A recombinant NL4-3 virus, in which a section of the nef gene from NL4-3 was replaced with the Renilla luciferase gene, was used as a reference virus. In addition, residue Gag P373 was converted to P373S. […] Transfections were performed in 293T cells using LipofectAMINE PLUS from Invitrogen (Carlsbad, Calif.), according to manufacturer's instruction. The virus was titered in MT-2 cells using luciferase enzyme activity as a marker. Luciferase was quantitated using the Dual Luciferase kit from Promega (Madison, Wis.), with modifications to the manufacturer's protocol. The diluted Passive Lysis solution was pre-mixed with the re-suspended Luciferase Assay Reagent and the re-suspended Stop & Glo Substrate (2:1:1 ratio). Fifty (50) μL of the mixture was added to each aspirated well on assay plates and luciferase activity was measured immediately on a Wallac TriLux (Perkin-Elmer). Antiviral activities of inhibitors toward the recombinant virus were quantified by measuring luciferase activity in cells infected for 4-5 days with NLRluc recombinants in the presence serial dilutions of the inhibitor.
WT refers to wild-type HIV virus. […]

[2] = system: HIV-1 NL4-3 gag A364V virus; assay: microbe, parasite or virus in culture; type: cell-based
Protocol: as §1
Both recombinant viruses were used as described above in the HIV cell culture assay for the NL4-3 virus.

[3] = Human immunodeficiency virus 1, NL43, MT2, read-out: WT (EC50, uM), Table 1 regular screen, class symbol
[4] = Human immunodeficiency virus 1, NL43, MT2, read-out: A364V (EC50, uM), Table 1 regular screen, class symbol
[5] = Human immunodeficiency virus 1, NL43, MT2, read-out: WT (EC50, uM), Table 1 regular screen, MT-2 cells, luciferase readout
[6] = Human immunodeficiency virus 1, NL43, MT2, read-out: A364V (EC50, uM), Table 1 regular screen, MT-2 cells, luciferase readout

Structure (SMILES)	EC50 [1, 3] [µM]	EC50 [2, 4] [µM]	EC50 [1, 5] [µM]	EC50 [2, 6] [µM]
C=C(C)[C@@H]1CC[C@]2(NCCC3(O)COC3)CC[C@]3(C)[C@H](CC[C@@H]4[C@@]5(C)CC=C(C6=CC[C@](CF)(C(=O)O)CC6)C(C)(C)[C@@H]5CC[C@]43C)[C@@H]12 [Example 2-10, (S)-1-(fluoromethyl)-4-((1R,3aS,5aR,5bR,7aR,11aS,11bR,13aR,13bR)-3a-((2-(3-hydroxyoxetan-3-yl)ethyl)amino)-5a,5b, 8,8,11a-pentamethyl-1-(prop-1-en-2-yl)-2,3,3a,4,5,5a,5b,6,7,7a,8,11,11a,11b,12,13,13a,13b-octadecahydro-1H-cyclopenta[a]chrysen-9-yl)cyclohex-3-enecarboxylic acid]	< 0.05	> 0.05		
C=C(C)[C@@H]1CC[C@]2(NCCN3CCOCC3)CC[C@]3(C)[C@H](CC[C@@H]4[C@@]5(C)CC=C(C6=CC[C@](CF)(C(=O)O)CC6)C(C)(C)[C@@H]5CC[C@]43C)[C@@H]12 [Example 3, (S)-1-(fluoromethyl)-4-((1R,3aS,5aR,5bR,7aR,11aS,11bR,13aR,13bR)-5a,5b,8,8,11a-pentamethyl-3a-((2-morpholinoethyl)amino)-1-(prop-1-en-2-yl)-2,3,3a,4,5,5a,5b,6,7,7a,8,11,11a,11b,12,13,13a,13b-octadecahydro-1H-cyclopenta[a]chrysen-9-yl)cyclohex-3-enecarboxylic acid]			0.00453	0.679
C=C(C)[C@@H]1CC[C@]2(CNCCCN3CCS(=O)(=O)CC3)CC[C@]3(C)[C@H](CC[C@@H]4[C@@]5(C)CC=C(C6=CC[C@@](CF)(C(=O)O)CC6)C(C)(C)[C@@H]5CC[C@]43C)[C@@H]12 [Example 11, (R)-4-((1R,3aS,5aR,5bR,7aR,11aS,11bR,13aR,13bR)-3a-(((3-(1,1-dioxidothiomorpholino)propyl)amino)methyl)-5a,5b, 8,8,11a-pentamethyl-1-(prop-1-en-2-yl)-2,3,3a,4,5,5a,5b,6,7,7a,8,11,11a,11b,12,13,13a,13b-octadecahydro-1H-cyclopenta[a]chrysen-9-yl)-1-(fluoromethyl)cyclohex-3-enecarboxylic acid]	< 0.05	< 0.05		
C=C(C)[C@@H]1CC[C@]2(NC(CN3CCS(=O)(=O)CC3)C(F)(F)F)CC[C@]3(C)[C@H](CC[C@@H]4[C@@]5(C)CC=C(C6=CC[C@](CF)(C(=O)O)CC6)C(C)(C)[C@@H]5CC[C@]43C)[C@@H]12 (single isomer, unassigned) [Example 42]	> 0.05	> 0.05		
C=C(C)[C@@H]1CC[C@]2(NCCC(C)(C)O)CC[C@]3(C)[C@H](CC[C@@H]4[C@@]5(C)CC=C(C6=CC[C@](CF)(C(=O)O)CC6)C(C)(C)[C@@H]5CC[C@]43C)[C@@H]12 [Example 2-1, (S)-1-(fluoromethyl)-4-((1R,3aS,5aR,5bR,7aR,11aS,11bR,13aR,13bR)-3a-((3-hydroxy-3-methylbutyl)amino)-5a,5b,8,8,11a-pentamethyl-1-(prop-1-en-2-yl)-2,3,3a,4,5,5a,5b,6,7,7a,8,11,11a,11b,12,13,13a,13b-octadecahydro-1H-cyclopenta[a]chrysen-9-yl)cyclohex-3-enecarboxylic acid]	< 0.05	> 0.05		
C=C(C)[C@@H]1CC[C@]2(NCC(=O)O)CC[C@]3(C)[C@H](CC[C@@H]4[C@@]5(C)CC=C(C6=CC[C@](CF)(C(=O)O)CC6)C(C)(C)[C@@H]5CC[C@]43C)[C@@H]12 [Example 28, (S)-4-((1R,3aS,5aR,5bR,7aR,11aS,11bR,13aR,13bR)-3a-((carboxymethyl)amino)-5a,5b, 8,8,11a-pentamethyl-1-(prop-1-en-2-yl)-2,3,3a,4,5,5a,5b,6,7,7a,8,11,11a,11b,12,13,13a,13b-octadecahydro-1H-cyclopenta[a]chrysen-9-yl)-1-(fluoromethyl)cyclohex-3-enecarboxylic acid]	> 0.05	> 0.05		
C=C(C)[C@@H]1CC[C@]2(NCCN3CC(C)S(=O)(=O)C(C)C3)CC[C@]3(C)[C@H](CC[C@@H]4[C@@]5(C)CC=C(C6=CC[C@](CF)(C(=O)O)CC6)C(C)(C)[C@@H]5CC[C@]43C)[C@@H]12 (stereo partly drawn) [Example 25, (1S)-4-((1R,3aS,5aR,5bR,7aR,11aS,11bR,13aR,13bR)-3a-((2-(2,6-dimethyl-1,1-dioxidothiomorpholino)ethyl)amino)-5a,5b, 8,8,11a-pentamethyl-1-(prop-1-en-2-yl)-2,3,3a,4,5,5a,5b,6,7,7a,8,11,11a,11b,12,13,13a,13b-octadecahydro-1H-cyclopenta[a]chrysen-9-yl)-1-(fluoromethyl)cyclohex-3-enecarboxylic acid]	< 0.05	> 0.05		
C=C(C)[C@@H]1CC[C@]2(NC(CN)C(F)(F)F)CC[C@]3(C)[C@H](CC[C@@H]4[C@@]5(C)CC=C(C6=CC[C@](CF)(C(=O)O)CC6)C(C)(C)[C@@H]5CC[C@]43C)[C@@H]12 (single isomer, unassigned) [Example 39]			0.0473	2.03
C=C(C)[C@@H]1CC[C@]2(NCCN3C[C@@H]4CC3CS4(=O)=O)CC[C@]3(C)[C@H](CC[C@@H]4[C@@]5(C)CC=C(C6=CC[C@](CF)(C(=O)O)CC6)C(C)(C)[C@@H]5CC[C@]43C)[C@@H]12 (stereo in doubt) [Example 4, (S)-4-((1R,3aS,5aR,5bR,7aR,11aS,11bR,13aR,13bR)-3a-((2-((1S,4S)-2,2-dioxido-2-thia-5-azabicyclo[2.2.1]heptan-5-yl)ethyl)amino)-5a,5b, 8,8,11a-pentamethyl-1-(prop-1-en-2-yl)-2,3,3a,4,5,5a,5b,6,7,7a,8,11,11a,11b,12,13,13a,13b-octadecahydro-1H-cyclopenta[a]chrysen-9-yl)-1-(fluoromethyl)cyclohex-3-enecarboxylic acid]			0.00141	0.0392
C=C(C)[C@@H]1CC[C@]2(NCCN3CCS(=O)(=O)CC(C)C3)CC[C@]3(C)[C@H](CC[C@@H]4[C@@]5(C)CC=C(C6=CC[C@](CF)(C(=O)O)CC6)C(C)(C)[C@@H]5CC[C@]43C)[C@@H]12 (stereo partly drawn) [Example 27, (1S)-1-(fluoromethyl)-4-((1R,3aS,5aR,5bR,7aR,11aS,11bR,13aR,13bR)-5a,5b,8,8,11a-pentamethyl-3a-((2-(6-methyl-1,1-dioxido-1,4-thiazepan-4-yl)ethyl)amino)-1-(prop-1-en-2-yl)-2,3,3a,4,5,5a,5b,6,7,7a,8,11,11a,11b,12,13,13a,13b-octadecahydro-1H-cyclopenta[a]chrysen-9-yl)cyclohex-3-enecarboxylic acid]	< 0.05	> 0.05		
C=C(C)[C@@H]1CC[C@]2(NCCC3CCOCC3)CC[C@]3(C)[C@H](CC[C@@H]4[C@@]5(C)CC=C(C6=CC[C@](CF)(C(=O)O)CC6)C(C)(C)[C@@H]5CC[C@]43C)[C@@H]12 [Example 9, (S)-1-(fluoromethyl)-4-((1R,3aS,5aR,5bR,7aR,11aS,11bR,13aR,13bR)-5a,5b,8,8,11a-pentamethyl-1-(prop-1-en-2-yl)-3a-((2-(tetrahydro-2H-pyran-4-yl)ethyl)amino)-2,3,3a,4,5,5a,5b,6,7,7a,8,11,11a,11b,12,13,13a,13b-octadecahydro-1H-cyclopenta[a]chrysen-9-yl)cyclohex-3-enecarboxylic acid]	< 0.05	> 0.05		
C=C(C)[C@@H]1CC[C@]2(NCC(=O)N3CCC(C)(O)CC3)CC[C@]3(C)[C@H](CC[C@@H]4[C@@]5(C)CC=C(C6=CC[C@](CF)(C(=O)O)CC6)C(C)(C)[C@@H]5CC[C@]43C)[C@@H]12 [Example 30, (S)-1-(fluoromethyl)-4-((1R,3aS,5aR,5bR,7aR,11aS,11bR,13aR,13bR)-3a-((2-(4-hydroxy-4-methylpiperidin-1-yl)-2-oxoethyl)amino)-5a,5b,8,8,11a-pentamethyl-1-(prop-1-en-2-yl)-2,3,3a,4,5,5a,5b,6,7,7a,8,11,11a,11b,12,13,13a,13b-octadecahydro-1H-cyclopenta[a]chrysen-9-yl)cyclohex-3-enecarboxylic acid]			0.00298	0.551
C=C(C)[C@@H]1CC[C@]2(NCCC3(O)CCN(S(C)(=O)=O)CC3)CC[C@]3(C)[C@H](CC[C@@H]4[C@@]5(C)CC=C(C6=CC[C@](CF)(C(=O)O)CC6)C(C)(C)[C@@H]5CC[C@]43C)[C@@H]12 [Example 2-14, (S)-1-(fluoromethyl)-4-((1R,3aS,5aR,5bR,7aR,11aS,11bR,13aR,13bR)-3a-((2-(4-hydroxy-1-(methylsulfonyl)piperidin-4-yl)ethyl)amino)-5a,5b,8,8,11a-pentamethyl-1-(prop-1-en-2-yl)-2,3,3a,4,5,5a,5b,6,7,7a,8,11,11a,11b,12,13,13a,13b-octadecahydro-1H-cyclopenta[a]chrysen-9-yl)cyclohex-3-enecarboxylic acid]			0.00256	0.0431
